The values below are quoted from earlier work in patent US10857210B2, “Compositions and methods to promote wound healing” (Wayne State University, priority 2015, dated 2020).

One series has as its system Tet promoter. The following applies: relative to tetracycline.

For the compound `Cc1c2c(c(O)c3c(O)cccc13)C(=O)[C@]1(O)C(=O)C(C(N)=O)=C(O)[C@@H](N(C)C)[C@@H]1C2` [anhydrotetracycline], the solubility in water result is reported as “fully soluble in water”. The “concentration that activates the Tet promoter, lower than with tetracycline” value with Tet promoter is listed as 2 logs.
